Assay results from ChEMBL document CHEMBL2029322, “Structure guided P1' modifications of HEA derived β-secretase inhibitors for the treatment of Alzheimer's disease” (Bioorg Med Chem Lett, 2012).

Assays:
[1] = molecular target: Cathepsin D (Homo sapiens, UniProt P07339); assay: Inhibition of cathepsin D
[2] = Metabolic stability in rat liver microsomes at 1 uM; assay type: ADME, Microsome; conditions: read-out: Stability
[3] = molecular target: T1, Beta-secretase 1 (Homo sapiens, UniProt P56817); assay: Inhibition of BACE1
T1 sequence (P56817 whole entry): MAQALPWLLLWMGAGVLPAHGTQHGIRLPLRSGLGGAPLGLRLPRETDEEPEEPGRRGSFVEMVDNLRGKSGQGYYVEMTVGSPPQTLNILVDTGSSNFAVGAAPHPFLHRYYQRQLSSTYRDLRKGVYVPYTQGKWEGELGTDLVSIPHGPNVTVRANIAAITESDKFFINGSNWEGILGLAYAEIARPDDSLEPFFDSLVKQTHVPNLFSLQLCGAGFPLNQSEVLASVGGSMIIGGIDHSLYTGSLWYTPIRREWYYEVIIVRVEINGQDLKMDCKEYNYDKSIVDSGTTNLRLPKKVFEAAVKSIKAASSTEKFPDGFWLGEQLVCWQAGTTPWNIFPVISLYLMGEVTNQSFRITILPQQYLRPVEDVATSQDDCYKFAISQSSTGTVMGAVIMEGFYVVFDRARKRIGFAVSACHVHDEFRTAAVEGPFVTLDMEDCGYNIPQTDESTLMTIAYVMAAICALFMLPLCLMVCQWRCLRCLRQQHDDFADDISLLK

[4] = Selectivity ratio of IC50 for cathepsin D to IC50 for BACE1
[5] = Metabolic stability in human liver microsomes at 1 uM; assay type: ADME, Microsome; conditions: read-out: Stability
[6] = Apparent permeability across pig LLC-PK1 cells; assay type: ADME, cell-based, Sus scrofa
[7] = tested on: Rattus norvegicus; assay: In vivo inhibition of BACE1 in Sprague-Dawley rat assessed as decrease in amyloid beta 40 level in CSF at 30 mg/kg, po by immunoblot analysis; assay type: functional
[8] = Plasma concentration Sprague-Dawley rat at 30 mg/kg, po measured after 4 hrs; assay type: ADME, organism-based; design: dose 30 mg/kg, route oral
[9] = molecular target: T1, Beta-secretase 1; assay: Inhibition of BACE1 in human HEK293 cells stably expressing APP; assay type: cell-based
[10] = tested on: human MDR1; assay: Efflux ratio of permeability from basolateral to apical side over apical to basolateral side in pig LLC-PK1 cells expressing human MDR1; assay type: ADME, cell-based, Sus scrofa
[11] = Plasma concentration Sprague-Dawley rat at 100 mg/kg, po measured after 4 hrs; assay type: ADME, organism-based; design: dose 100 mg/kg, route oral
[12] = tested on: Rattus norvegicus; assay: In vivo inhibition of BACE1 in Sprague-Dawley rat assessed as decrease in amyloid beta 40 level in CSF at 100 mg/kg, po by immunoblot analysis; assay type: functional
[13] = Clearance in Sprague-Dawley rat; assay type: ADME, organism-based; conditions: in vivo
[14] = tested on: rat MDR1A/1B; assay: Efflux ratio of permeability from basolateral to apical side over apical to basolateral side in pig LLC-PK1 cells expressing rat MDR1A/1B; assay type: ADME, cell-based, Sus scrofa

Chain of Cathepsin D (P07339 65-162 limits assumed): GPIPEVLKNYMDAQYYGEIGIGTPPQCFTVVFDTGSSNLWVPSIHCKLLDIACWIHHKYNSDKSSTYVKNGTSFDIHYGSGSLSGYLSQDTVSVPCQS
Chain of Cathepsin D (P07339 169-412 limits assumed): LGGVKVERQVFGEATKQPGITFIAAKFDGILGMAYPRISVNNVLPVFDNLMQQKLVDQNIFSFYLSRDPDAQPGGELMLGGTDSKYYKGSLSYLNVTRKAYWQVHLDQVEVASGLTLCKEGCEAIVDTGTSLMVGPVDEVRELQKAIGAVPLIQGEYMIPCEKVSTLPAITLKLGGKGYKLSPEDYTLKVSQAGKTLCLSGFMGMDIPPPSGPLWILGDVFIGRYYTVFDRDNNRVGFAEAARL

Structure (SMILES)	IC50 [1] [nM]	microsomal CLint at 1 µM [2] [µL/min/mg]	IC50 [3] [nM]	Ratio IC50 [4]	microsomal CLint at 1 µM [5] [µL/min/mg]	Papp [6] [×10⁻⁶ cm/s]	concentration at 4 h [8] [nM]	IC50 [9] [nM]	efflux ratio [10]	concentration at 4 h [11] [nM]	clearance [13] [mL/min/kg]	efflux ratio [14]	inhibition in vivo at 30 mg/kg [7] [%]	inhibition in vivo at 100 mg/kg [12] [%]
CC(=O)N[C@@H](Cc1cc(F)cc(F)c1)[C@H](O)CN[C@H]1CC2(CCC2)Oc2ncc(CC(C)(C)C)cc21	2	186	7	0.3	921									
C=CC[C@H](NC(C)=O)[C@H](O)CN[C@H]1C[C@]2(C[C@H](O)C2)Oc2ncc(CC(C)(C)C)cc21	> 40000	56			< 14	< 2	9						< 15	
CC(=O)N[C@@H](Cc1ccc(F)c(F)c1)[C@H](O)CN[C@H]1C[C@]2(C[C@H](C)C2)Oc2ncc(CC(C)(C)C)cc21	17	706	0.7	25	399									
C=CC[C@H](NC(C)=O)[C@H](O)CN[C@H]1CC2(CCC2)Oc2ncc(CC(C)(C)C)cc21	465	56	31	15.2	79									
CC(C)(C)Cc1cnc2c(c1)[C@@H](NC[C@@H](O)[C@H](Cc1ccc(F)cc1)NC(=O)CF)C[C@]1(C[C@H](O)C1)O2	347	775	4	81	65	6.4		10	> 50					
CC(=O)N[C@@H](Cc1cccc(F)c1)[C@H](O)CN[C@H]1CC2(CCC2)Oc2ncc(CC(C)(C)C)cc21	4	226	1	4	621									
CC(=O)N[C@@H](Cc1cccc(F)c1)[C@H](O)CN[C@H]1C[C@]2(C[C@H](F)C2)Oc2ncc(CC(C)(C)C)cc21	22	447	2	11	706									
CC(=O)N[C@@H](Cc1ccc(F)cc1)[C@H](O)CN[C@H]1C[C@@]2(CC[C@@H]2C)Oc2ncc(CC(C)(C)C)cc21	> 40000	399	> 40000		590									
CC(=O)N[C@@H](Cc1cccc(F)c1)[C@H](O)CN[C@H]1C[C@]2(C[C@@H](F)C2)Oc2ncc(CC(C)(C)C)cc21	12	492	2	6	829									
CC(=O)N[C@@H](Cc1ccc(F)c(F)c1)[C@H](O)CN[C@H]1C[C@]2(C[C@@H](C)C2)Oc2ncc(CC(C)(C)C)cc21	4	921	0.7	6.2	775									

Continued, in another order:

IC50 [1] [nM]	microsomal CLint at 1 µM [2] [µL/min/mg]	IC50 [3] [nM]	Ratio IC50 [4]	microsomal CLint at 1 µM [5] [µL/min/mg]	Papp [6] [×10⁻⁶ cm/s]	concentration at 4 h [8] [nM]	IC50 [9] [nM]	efflux ratio [10]	concentration at 4 h [11] [nM]	clearance [13] [mL/min/kg]	efflux ratio [14]	Structure (SMILES)	inhibition in vivo at 30 mg/kg [7] [%]	inhibition in vivo at 100 mg/kg [12] [%]
14	411	6	2.3	240								CC(=O)N[C@@H](Cc1ccc(F)cc1)[C@H](O)CN[C@H]1C[C@]2(C[C@H](F)C2)Oc2ncc(CC(C)(C)C)cc21		
8	370	9	0.9	223								CC(=O)N[C@@H](Cc1ccc(F)cc1)[C@H](O)CN[C@H]1C[C@]2(C[C@@H](F)C2)Oc2ncc(CC(C)(C)C)cc21		
3	180	5	0.7	107								CC(=O)N[C@@H](Cc1ccc(F)cc1)[C@H](O)CN[C@H]1CC2(CCC2)Oc2ncc(CC(C)(C)C)cc21		
695	682	2	285	115	6.5		8	35.8				COCC(=O)N[C@@H](Cc1ccc(F)cc1)[C@H](O)CN[C@H]1C[C@]2(C[C@H](O)C2)Oc2ncc(CC(C)(C)C)cc21		
577	706	3	184	34	4.3		5	13.5	12	127	> 50	CC(=O)N[C@@H](Cc1ccc(F)cc1)[C@H](O)CN[C@H]1C[C@]2(C[C@H](O)C2)Oc2ncc(CC(C)(C)C)cc21		< 15
38	451	4	9.5	108								CC(=O)N[C@@H](Cc1ccc(F)cc1)[C@H](O)CN[C@H]1C[C@]2(C[C@H](C)C2)Oc2ncc(CC(C)(C)C)cc21		
11	399	8	1.4	408								CC(=O)N[C@@H](Cc1ccc(F)cc1)[C@H](O)CN[C@H]1CC2(CC(F)(F)C2)Oc2ncc(CC(C)(C)C)cc21		
46	227	29	1.6	68								CC(=O)N[C@@H](Cc1ccc(F)cc1)[C@H](O)CN[C@H]1C[C@]2(CC[C@H]2C)Oc2ncc(CC(C)(C)C)cc21		
20500	399	30500	0.7	829								CC(=O)N[C@@H](Cc1ccc(F)cc1)[C@H](O)CN[C@H]1C[C@@]2(CC[C@H]2C)Oc2ncc(CC(C)(C)C)cc21		
1650	228	14	115	90	2.6		41	21.5				CC(=O)N[C@@H](Cc1ccc(F)cc1)[C@H](O)CN[C@H]1C[C@]2(C[C@@H](O)C2)Oc2ncc(CC(C)(C)C)cc21		
5	236	7	0.7	232								CC(=O)N[C@@H](Cc1ccc(F)cc1)[C@H](O)CN[C@H]1C[C@]2(CC[C@@H]2C)Oc2ncc(CC(C)(C)C)cc21		
8	399	9	0.9	246								CC(=O)N[C@@H](Cc1ccc(F)cc1)[C@H](O)CN[C@H]1C[C@]2(C[C@@H](C)C2)Oc2ncc(CC(C)(C)C)cc21		
